Reference: ChEMBL document CHEMBL3120105, “Identification of weak points of hepatitis C virus NS3 protease inhibitors using surface plasmon resonance biosensor-based interaction kinetic analysis and genetic variants” (J Med Chem, 2014)
pKd: −log10 of the molar value. Where a SMILES comes first, the peptide text is derived from it. [ ]: non-standard residue; d: D form. dGla = N[C@H](CC(C(=O)O)C(=O)O)C(=O)O; Cha = N[C@@H](CC1CCCCC1)C(=O)O

Assays:
[1] = Inhibition of Hepatitis C virus genotype 3a full-length NS3 protease assessed as overall/observed affinity by surface plasmon resonance biosensor-based interaction kinetic analysis; design: species or system Hepatitis C virus subtype 3a
[2] = Inhibition of Hepatitis C virus genotype 1b NS3 protease domain assessed as overall/observed affinity by surface plasmon resonance biosensor-based interaction kinetic analysis; design: species or system Hepatitis C virus subtype 1b
[3] = Inhibition of Hepatitis C virus genotype 1b full-length NS3/NS4A protease assessed as overall/observed affinity by surface plasmon resonance biosensor-based interaction kinetic analysis; design: species or system Hepatitis C virus subtype 1b
[4] = Inhibition of Hepatitis C virus genotype 1b full-length NS3 protease assessed as overall/observed affinity by surface plasmon resonance biosensor-based interaction kinetic analysis; design: species or system Hepatitis C virus subtype 1b
[5] = Inhibition of Hepatitis C virus genotype 1a full-length NS3/NS4A protease assessed as overall/observed affinity by surface plasmon resonance biosensor-based interaction kinetic analysis; design: species or system Hepatitis C virus subtype 1a
[6] = Inhibition of Hepatitis C virus genotype 1a full-length NS3 protease assessed as overall/observed affinity by surface plasmon resonance biosensor-based interaction kinetic analysis; design: species or system Hepatitis C virus subtype 1a
[7] = Inhibition of Hepatitis C virus genotype 3a full-length NS3 protease assessed as equilibrium dissociation constant by surface plasmon resonance biosensor-based interaction kinetic analysis; design: species or system Hepatitis C virus subtype 3a
[8] = Inhibition of Hepatitis C virus genotype 1b NS3 protease domain assessed as equilibrium dissociation constant by surface plasmon resonance biosensor-based interaction kinetic analysis; design: species or system Hepatitis C virus subtype 1b
[9] = Inhibition of Hepatitis C virus genotype 1b full-length NS3/NS4A protease assessed as equilibrium dissociation constant by surface plasmon resonance biosensor-based interaction kinetic analysis; design: species or system Hepatitis C virus subtype 1b
[10] = Inhibition of Hepatitis C virus genotype 1b full-length NS3 protease assessed as equilibrium dissociation constant by surface plasmon resonance biosensor-based interaction kinetic analysis; design: species or system Hepatitis C virus subtype 1b
[11] = Inhibition of Hepatitis C virus genotype 1a full-length NS3/NS4A protease assessed as equilibrium dissociation constant by surface plasmon resonance biosensor-based interaction kinetic analysis; design: species or system Hepatitis C virus subtype 1a
[12] = Inhibition of Hepatitis C virus genotype 1a full-length NS3 protease assessed as equilibrium dissociation constant by surface plasmon resonance biosensor-based interaction kinetic analysis; design: species or system Hepatitis C virus subtype 1a

Compound	pKd [1]	pKd [2]	pKd [3]	pKd [4]	pKd [5]	pKd [6]	pKd [7]	pKd [8]	pKd [9]	pKd [10]	pKd [11]	pKd [12]
CC[C@H](C)[C@H](NC(=O)[C@H](CC(C)C)NC(=O)[C@@H](CC(C(=O)O)C(=O)O)NC(=O)[C@H](CC(=O)O)NC(C)=O)C(=O)N[C@@H](CC1CCCCC1)C(=O)N[C@@H](CS)C(=O)O (Ac-D[dGla]LI[Cha]C-OH)	6.06	5.48	5.70	5.25	4.77	6.70	5.85	5.14	5.24	5.14	4.44	5.41
CC(C)(C)NC(=O)N[C@H](C(=O)N1C[C@H]2[C@@H]([C@H]1C(=O)NC(CC1CCC1)C(=O)C(N)=O)C2(C)C)C(C)(C)C (stereo partly specified) [BOCEPREVIR]	8.41	5.49	7.42	7.05			5.77	4.80	5.11	4.80		
COc1ccc2c(O[C@@H]3C[C@H]4C(=O)N[C@]5(C(=O)O)C[C@H]5/C=C\CCCCC[C@H](NC(=O)OC5CCCC5)C(=O)N4C3)cc(-c3csc(NC(C)C)n3)nc2c1 [CILUPREVIR]	6.80	8.60	7.15	7.17	8.68	8.89	5.48	8.14	7.15	6.66	8.68	8.52
CC(C)(C)OC(=O)N[C@H]1CCCCC/C=C\[C@@H]2C[C@@]2(C(=O)NS(=O)(=O)C2CC2)NC(=O)[C@@H]2C[C@@H](OC(=O)N3Cc4cccc(F)c4C3)CN2C1=O [DANOPREVIR]	9.28	5.00	8.19	8.80	8.80	9.89	7.68	4.72	8.19	8.80	8.40	8.60
CCC[C@H](NC(=O)[C@@H]1[C@H]2CCC[C@H]2CN1C(=O)[C@@H](NC(=O)[C@@H](NC(=O)c1cnccn1)C1CCCCC1)C(C)(C)C)C(=O)C(=O)NC1CC1 [TELAPREVIR]	6.00	5.52	7.18	8.07	7.77	6.47	4.18	5.39	7.17	8.07	4.85	5.70
